Here are results for 15 compounds from ChEMBL document CHEMBL1143301, “Novel HDAC6 isoform selective chiral small molecule histone deacetylase inhibitors” (Bioorg Med Chem Lett, 2009).

SMILES strings stand for the structures. Activity calls are given as the source filed them. The rule behind the calls is not given here.

Assay [1] has as its system T-24. The assay is described as follows: Induction of alpha tubulin acetylation in human T24 cells. Format: functional, cell-based.
The test system of assay [2] is T-24. In words: Induction of histone H3 acetylation in human T24 cells. The format is functional, cell-based.
For another assay, the target named is T1, Histone deacetylase 8 (Homo sapiens, UniProt Q9BY41).
T1 sequence (Q9BY41 whole entry): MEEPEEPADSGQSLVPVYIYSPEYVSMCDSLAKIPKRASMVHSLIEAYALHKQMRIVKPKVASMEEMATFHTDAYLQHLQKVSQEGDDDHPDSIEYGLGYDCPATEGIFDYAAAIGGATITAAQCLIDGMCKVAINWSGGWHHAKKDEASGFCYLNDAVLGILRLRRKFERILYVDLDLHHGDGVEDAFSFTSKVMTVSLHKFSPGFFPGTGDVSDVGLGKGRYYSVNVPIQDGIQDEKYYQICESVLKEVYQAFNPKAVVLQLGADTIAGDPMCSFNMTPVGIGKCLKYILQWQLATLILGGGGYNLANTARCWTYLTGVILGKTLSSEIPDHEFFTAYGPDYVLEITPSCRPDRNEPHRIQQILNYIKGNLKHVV
The assay is described as follows: Inhibition of human recombinant histone deacetylase 8.

Assay [3] is filed under the species Homo sapiens. In words: Selectivity ratio of IC50 for human recombinant histone deacetylase 2 to IC50 for human recombinant histone deacetylase 6.
The species named for assay [4] is Homo sapiens. In words: Selectivity ratio of IC50 for human recombinant histone deacetylase 8 to IC50 for human recombinant histone deacetylase 6.
A further assay concerns the target Histone deacetylase 2 (Homo sapiens, UniProt Q92769).
For assay [5], the target named is T2, Protein deacetylase HDAC6 (Homo sapiens, UniProt Q9UBN7).
T2 sequence (Q9UBN7 whole entry): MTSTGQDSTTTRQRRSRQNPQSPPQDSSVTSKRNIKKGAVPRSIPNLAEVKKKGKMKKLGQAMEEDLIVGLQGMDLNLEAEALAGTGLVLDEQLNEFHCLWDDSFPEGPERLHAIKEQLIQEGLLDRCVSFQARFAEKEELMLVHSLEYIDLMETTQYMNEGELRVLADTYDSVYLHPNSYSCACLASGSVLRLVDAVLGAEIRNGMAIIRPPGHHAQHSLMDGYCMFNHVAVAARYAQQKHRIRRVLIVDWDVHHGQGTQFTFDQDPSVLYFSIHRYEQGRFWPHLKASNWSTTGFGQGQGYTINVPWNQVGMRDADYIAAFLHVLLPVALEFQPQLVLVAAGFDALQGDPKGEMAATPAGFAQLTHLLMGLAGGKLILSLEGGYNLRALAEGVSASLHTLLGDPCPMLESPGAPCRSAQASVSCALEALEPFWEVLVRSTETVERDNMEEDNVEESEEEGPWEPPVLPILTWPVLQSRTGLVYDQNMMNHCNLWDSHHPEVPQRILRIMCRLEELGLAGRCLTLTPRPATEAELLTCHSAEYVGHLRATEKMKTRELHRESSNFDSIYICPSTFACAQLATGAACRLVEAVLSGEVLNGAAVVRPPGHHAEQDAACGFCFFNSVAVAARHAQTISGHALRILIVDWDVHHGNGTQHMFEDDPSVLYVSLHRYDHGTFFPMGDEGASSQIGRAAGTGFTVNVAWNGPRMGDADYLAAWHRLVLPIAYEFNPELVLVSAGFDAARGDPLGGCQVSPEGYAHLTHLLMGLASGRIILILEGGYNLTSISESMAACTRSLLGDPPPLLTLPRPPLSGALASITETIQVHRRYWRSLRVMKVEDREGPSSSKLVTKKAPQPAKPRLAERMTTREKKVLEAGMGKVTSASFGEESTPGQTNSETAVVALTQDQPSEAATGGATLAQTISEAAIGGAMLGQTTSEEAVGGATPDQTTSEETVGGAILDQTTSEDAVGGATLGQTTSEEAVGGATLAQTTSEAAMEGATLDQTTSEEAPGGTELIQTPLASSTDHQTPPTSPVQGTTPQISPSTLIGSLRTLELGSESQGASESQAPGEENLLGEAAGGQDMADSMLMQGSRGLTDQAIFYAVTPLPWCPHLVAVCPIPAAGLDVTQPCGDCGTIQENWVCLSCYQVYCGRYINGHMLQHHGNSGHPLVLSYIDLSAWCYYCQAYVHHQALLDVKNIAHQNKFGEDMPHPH
Description: Inhibition of human recombinant histone deacetylase 6

For assay [6], the system named is T-24. In words: Selectivity ratio of EC50 for histone H3 acetylation to EC50 for alpha-tubulin acetylation in human T24 cells.
For assay [7], the system named is T-24. The assay is described as follows: Induction of alpha tubulin acetylation in human T24 cells at 1 uM preincubated 16 hrs before whole-cell lysate by Western blot analysis. Format: functional, cell-based. Background: A western blot detects proteins with antibodies after separation by electrophoresis.

Histone deacetylase 2, sequence (Q92769 whole entry): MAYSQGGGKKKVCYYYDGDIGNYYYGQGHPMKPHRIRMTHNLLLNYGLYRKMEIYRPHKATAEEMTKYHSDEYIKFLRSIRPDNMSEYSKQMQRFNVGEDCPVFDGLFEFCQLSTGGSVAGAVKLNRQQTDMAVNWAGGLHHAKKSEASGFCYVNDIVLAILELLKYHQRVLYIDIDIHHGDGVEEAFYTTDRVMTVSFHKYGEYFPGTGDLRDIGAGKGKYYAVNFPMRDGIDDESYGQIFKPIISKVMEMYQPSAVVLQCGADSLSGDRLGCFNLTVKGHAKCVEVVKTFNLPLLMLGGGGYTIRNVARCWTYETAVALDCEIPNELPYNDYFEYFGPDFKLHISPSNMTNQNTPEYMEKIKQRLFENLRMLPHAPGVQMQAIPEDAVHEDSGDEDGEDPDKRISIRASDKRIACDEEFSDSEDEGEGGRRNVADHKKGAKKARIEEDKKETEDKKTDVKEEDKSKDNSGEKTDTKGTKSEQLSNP
Description for Histone deacetylase 2: Inhibition of human recombinant histone deacetylase 2

On to `O=C(NO)c1ccc(CN2C(=O)CNC(=O)[C@H]2Cc2cccs2)cc1`, for which the concentration for a half-maximal effect (EC50) (usually the midpoint of the concentration-response curve) with T-24 [1] was found to be 2000 nM; in the assay on T-24 [2], 9000 nM. The figures for the IC50 (at Histone deacetylase 8; against Histone deacetylase 2; in assay [5]) were 440 nM, 3470 nM and 160 nM, respectively. Moreover, the values for the Ratio IC50 in the assay filed under Homo sapiens [3] and in the assay filed under Homo sapiens [4] were 22 and 3, respectively.

Regarding `O=C(NO)c1ccc(CN2c3ccccc3NC(=O)[C@@H]2Cc2cccs2)cc1`, the EC50 with T-24 [1] amounted to 230 nM; in the assay with T-24 [2], 2300 nM. In addition, the IC50 (in general, the concentration that inhibits the measured activity by half) at Histone deacetylase 8 was found to be 1190 nM; at Histone deacetylase 2, 1480 nM; in assay [5] it was 310 nM. The values for the Ratio IC50 in the assay filed under Homo sapiens [3] and in the assay listed under Homo sapiens [4] were 5 and 4, respectively.

Regarding `CC(/C=C/C(=O)NO)=C\[C@@H](C)C(=O)c1ccc(N(C)C)cc1` (racemic) [TRICHOSTATIN], the EC50 with T-24 [1] and in the assay with T-24 [2] was 10 nM in each case.

Consider `O=C(CCCCCCC(=O)Nc1ccc([C@H]2O[C@@H](CSc3nc(-c4ccccc4)c(-c4ccccc4)o3)C[C@@H](c3ccc(CO)cc3)O2)cc1)NO` [TUBACIN], for which the Selectivity Index in the assay on T-24 [6] came to 75.

Take `O=C(NO)c1ccc(CN2C(=O)CNC(=O)[C@H]2Cc2ccccc2)cc1`: the values for the concentration for a half-maximal effect (EC50) with T-24 [1] and in the assay on T-24 [2] were 1490 nM and 23000 nM, respectively. In addition, the results for the IC50 (at Histone deacetylase 8; against Histone deacetylase 2; in assay [5]) were 2340 nM, 5540 nM and 170 nM, respectively. Further, the Ratio IC50 in the assay listed under Homo sapiens [3] is 33; in the assay listed under Homo sapiens [4] it was 14. Moreover, in the assay with T-24 [6], the “Selectivity Index” value is given as greater than 13.

`O=C(NO)c1ccc(CN2c3ccccc3NC(=O)[C@H]2CCc2ccccc2)cc1`: the 50% inhibitory concentration (IC50) turned out to be 640 nM at Histone deacetylase 8, 520 nM against Histone deacetylase 2 and 10 nM in [5]. Besides, the Ratio IC50 was 40 in the assay listed under Homo sapiens [3] and 49 in the assay filed under Homo sapiens [4].

Take `O=C(NO)c1ccc(CN2C(=O)CNC(=O)[C@H]2Cc2c[nH]c3ccccc23)cc1`: the results for the concentration giving a half-maximal response (EC50) in the assay on T-24 [1] and in the assay on T-24 [2] were 2870 nM and 12100 nM, respectively. The IC50 was 1210 nM on Histone deacetylase 8, 1810 nM against Histone deacetylase 2 and 110 nM in [5]. For the same compound, the Ratio IC50 in the assay listed under Homo sapiens [3] was determined as 17; in the assay listed under Homo sapiens [4], 11.

`O=C(NO)c1ccc(CN2c3ccccc3NC(=O)[C@H]2Cc2ccccc2)cc1`: the EC50 was determined as 40 nM in the assay with T-24 [1] and 520 nM in the assay with T-24 [2]. The half-maximal inhibitory concentration (IC50) stood at 530 nM at Histone deacetylase 8, 260 nM at Histone deacetylase 2 and 10 nM in assay [5]. Moreover, the values for the Ratio IC50 in the assay filed under Homo sapiens [3] and in the assay listed under Homo sapiens [4] were 26 and 53, respectively. Besides, in the assay with T-24 [6], the “Selectivity Index” value is on record as greater than 13.

Take `O=C1CN(Cc2ccc(C(=O)NO)cc2)c2ccccc2N1`: the EC50 was 1010 nM in the assay with T-24 [1] and 3580 nM in the assay on T-24 [2]. The IC50 on Histone deacetylase 8 came to 520 nM; on Histone deacetylase 2, 560 nM; in assay [5], 150 nM. Also, the Ratio IC50 was 4 in the assay filed under Homo sapiens [3] and 3 in the assay filed under Homo sapiens [4].

For the compound `O=C(NO)c1ccc(CN2c3ccccc3NC(=O)[C@@H]2Cc2ccccc2)cc1`, the EC50 in the assay with T-24 [1] was determined as 320 nM; in the assay with T-24 [2] it was 1900 nM. For the same compound, the values for the IC50 (at Histone deacetylase 8; at Histone deacetylase 2; in assay [5]) were 210 nM, 460 nM and 220 nM, respectively. For the same compound, the Ratio IC50 in the assay filed under Homo sapiens [3] amounted to 2; in the assay listed under Homo sapiens [4], 1.

As to `O=C(NO)c1ccc(CN2c3ccccc3NC(=O)[C@H]2Cc2ccc(F)c(F)c2)cc1`, the IC50 on Histone deacetylase 8 came out at 420 nM; on Histone deacetylase 2 it was 460 nM; in assay [5] it was 40 nM. The Ratio IC50 in the assay filed under Homo sapiens [3] is 11; in the assay listed under Homo sapiens [4], 10.

With `CC(C)(C)OC(=O)NCCCC[C@@H]1C(=O)Nc2ccccc2N1Cc1ccc(C(=O)NO)cc1`, the concentration for a half-maximal effect (EC50) with T-24 [1] was 90 nM; in the assay on T-24 [2] it was 6750 nM. Further, the 50% inhibitory concentration (IC50) was determined as 1150 nM on Histone deacetylase 8, 1480 nM at Histone deacetylase 2 and 40 nM in assay [5]. The figures for the Ratio IC50 in the assay listed under Homo sapiens [3] and in the assay listed under Homo sapiens [4] were 34 and 27, respectively. In addition, the “Ratio EC50” value with T-24 [6] is recorded as 75.

For the compound `O=C(NO)c1ccc(CN2c3ccccc3NC(=O)[C@H]2Cc2cccs2)cc1`, the EC50 in the assay on T-24 [1] amounted to 70 nM; in the assay on T-24 [2], 1220 nM. Also, the results for the IC50 (at Histone deacetylase 8; on Histone deacetylase 2; in assay [5]) were 690 nM, 870 nM and 40 nM, respectively. Moreover, the values for the Ratio IC50 in the assay filed under Homo sapiens [3] and in the assay listed under Homo sapiens [4] were 21 and 17, respectively. Besides, in the assay with T-24 [7], the result was Active. Besides, the “Selectivity Index” value in the assay on T-24 [6] is on record as greater than 13.

Regarding `CC(C)(C)Oc1ccc(C[C@@H]2C(=O)Nc3ccccc3N2Cc2ccc(C(=O)NO)cc2)cc1`, the EC50 in the assay on T-24 [1] was 80 nM; in the assay on T-24 [2], 2750 nM. Moreover, the half-inhibitory concentration (IC50) on Histone deacetylase 8 is 250 nM; against Histone deacetylase 2 it was 1440 nM; in assay [5], 50 nM. The Ratio IC50 in the assay filed under Homo sapiens [3] was found to be 28; in the assay listed under Homo sapiens [4], 5. The “Selectivity Index” value in the assay with T-24 [6] is given as greater than 13.

`O=C(NO)c1ccc(CN2c3ccccc3NC(=O)[C@H]2Cc2ccc(O)cc2)cc1`: the IC50 on Histone deacetylase 8 was 730 nM; at Histone deacetylase 2 it was 330 nM; in assay [5], 10 nM. The results for the Ratio IC50 in the assay filed under Homo sapiens [3] and in the assay listed under Homo sapiens [4] were 41 and 91, respectively.
